ChEMBL document CHEMBL1201862, “PubChem BioAssay data set” (2004)
Calls of active or inactive are those of the source. Rule as the data show it, for most assays here: actives have a measured EC50 and inactives only a lower limit.

Legend:
[1] = target: T1, Heat shock factor protein 1 (Mus musculus, UniProt P38532); test: inhibition of MG132-induced HSE-luciferase signal, confirmation, cell-based, NIH3T3, luminescence, dose retest (AID 2382); assay type: functional;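 also: NIH3T3 fibroblasts with HSF1-driven luciferase reporter stressed by proteasome inhibitor MG132; luminescence from HSF1-driven luciferase expression after 8 hours of MG132 stress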
T1 sequence (P38532 whole entry): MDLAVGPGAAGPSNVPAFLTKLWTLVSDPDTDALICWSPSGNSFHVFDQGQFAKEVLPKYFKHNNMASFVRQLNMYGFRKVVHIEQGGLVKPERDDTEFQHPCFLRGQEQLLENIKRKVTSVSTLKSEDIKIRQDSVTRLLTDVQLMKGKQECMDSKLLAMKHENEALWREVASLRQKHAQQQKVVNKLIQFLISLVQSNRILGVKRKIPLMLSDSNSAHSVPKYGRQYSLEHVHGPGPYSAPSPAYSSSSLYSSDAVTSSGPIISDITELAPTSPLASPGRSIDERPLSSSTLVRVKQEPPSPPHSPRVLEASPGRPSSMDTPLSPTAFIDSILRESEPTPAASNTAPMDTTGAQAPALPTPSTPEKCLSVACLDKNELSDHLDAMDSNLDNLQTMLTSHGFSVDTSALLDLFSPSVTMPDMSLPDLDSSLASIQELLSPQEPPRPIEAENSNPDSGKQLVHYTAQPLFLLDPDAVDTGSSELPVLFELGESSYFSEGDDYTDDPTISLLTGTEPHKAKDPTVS

[2] = Luminescence Cell-Based Dose Confirmation HTS to Identify Activators of 5'UTR Stem-Loop Driven Alpha-Synuclein mRNA Translation in H4 Neuroglioblastoma Cells. [Related pubchem assays: 1829 (Project Summary), 1814 (Primary HTS)]; assay type: functional
[3] = Luminescence Cell-Based Dose Response HTS to Identify Activators of Luciferase Translation or Activity in H4 […] Cells. [Related pubchem assays: 1829 (Project Summary), 1814 (Primary HTS)]; assay type: functional
[4] = tested on: H4; test: Luminescence Cell-Based Dose Response HTS to Identify Activators of 5'UTR Stem-Loop Driven Prion Protein mRNA Translation in H4 Neuroglioblastoma Cells. [Related pubchem assays: 1829 (Project Summary), 1814 (Primary HTS)]; assay type: functional; conditions: Homo sapiens
[5] = target: T2, Streptokinase A (Streptococcus pyogenes serotype M1, UniProt P10520); test: S. pyogenes streptokinase expression inhibitors, potency, dose response, plasminogen activation absorbance, OD405 (AID 1914); assay type: functional, Streptococcus pyogenes M1 GAS;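 also: secreted streptokinase activity via plasminogen activation per viability signal from cell pellet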
T2 sequence (P10520 whole entry): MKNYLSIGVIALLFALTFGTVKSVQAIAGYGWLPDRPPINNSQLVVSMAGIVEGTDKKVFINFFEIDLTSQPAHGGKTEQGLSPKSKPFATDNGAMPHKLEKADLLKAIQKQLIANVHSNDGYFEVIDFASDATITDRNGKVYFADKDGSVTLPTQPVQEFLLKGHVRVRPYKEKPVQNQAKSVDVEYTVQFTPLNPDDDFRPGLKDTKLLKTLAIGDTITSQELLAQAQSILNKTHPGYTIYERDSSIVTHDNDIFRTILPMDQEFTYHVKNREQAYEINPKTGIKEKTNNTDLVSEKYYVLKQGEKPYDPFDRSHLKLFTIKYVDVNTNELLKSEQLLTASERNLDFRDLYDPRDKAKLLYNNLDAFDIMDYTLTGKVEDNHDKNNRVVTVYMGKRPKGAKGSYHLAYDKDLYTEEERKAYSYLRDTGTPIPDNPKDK

[6] = tested on: Streptococcus sp. 'group A'; test: growth inhibition of control SK(-) GAS strain, dose response, counter-screen for streptokinase expression inhibitor project, luminescence, kanamycin, BacTiterGlo, confirmation (AID 1900); assay type: functional, organism-based
[7] = tested on: Streptococcus; test: Group A Streptococcus viability loss, dose response, counter-screen for streptokinase expression inhibitor project, luminescence, BacTiterGlo (AID 1915); assay type: functional, organism-based;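 also: potency for reduction of bacterial viability or growth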
[8] = Luminescence Cell-Based Dose Confirmation HTS to Identify Inhibitors of Platelet Dense Granule Release. [Related pubchem assays: 1663 (Primary HTS), 1678 (Summary of Project)]; assay type: functional
[9] = target: Luciferin 4-monooxygenase (Photinus pyralis, UniProt P08659); test: firefly luciferase enzyme inhibitors, dose response, biochemical, luminescence (AID 1891)
[10] = target: T3, Rac GTPase-activating protein 1 (Homo sapiens, UniProt Q9H0H5); test: MgcRacGAP GTPase-activating activity inhibitors, confirmation, biochemical, ADP Hunter fluorescence, primary and confirmatory (AID 624330); assay type: functional
T3 sequence (Q9H0H5 whole entry): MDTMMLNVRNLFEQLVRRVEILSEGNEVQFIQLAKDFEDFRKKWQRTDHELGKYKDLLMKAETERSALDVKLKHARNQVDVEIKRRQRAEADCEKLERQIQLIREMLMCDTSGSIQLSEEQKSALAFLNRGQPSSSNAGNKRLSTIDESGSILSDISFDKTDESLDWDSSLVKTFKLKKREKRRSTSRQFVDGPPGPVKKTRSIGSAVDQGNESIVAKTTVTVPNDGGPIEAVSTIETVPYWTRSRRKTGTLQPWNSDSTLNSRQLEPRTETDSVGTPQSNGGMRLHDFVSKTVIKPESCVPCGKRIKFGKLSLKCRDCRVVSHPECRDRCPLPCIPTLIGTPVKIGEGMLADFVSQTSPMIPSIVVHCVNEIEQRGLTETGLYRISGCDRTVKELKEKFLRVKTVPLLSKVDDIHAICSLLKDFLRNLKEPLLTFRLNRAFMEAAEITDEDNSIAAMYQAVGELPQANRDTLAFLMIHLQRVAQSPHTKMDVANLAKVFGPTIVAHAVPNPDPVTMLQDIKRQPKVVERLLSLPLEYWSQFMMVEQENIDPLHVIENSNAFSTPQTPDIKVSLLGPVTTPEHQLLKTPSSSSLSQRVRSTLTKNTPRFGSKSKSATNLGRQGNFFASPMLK

[11] = Luminescence Cell-Based Dose Retest to Confirm Inhibitors of Cancer Stem Cells. [Related pubchem assays (depositor defined):AID2717, AID2721]; assay type: functional; conditions: Homo sapiens
[12] = target: Paired box protein Pax-8 (Homo sapiens, UniProt Q06710); test: inhibitors of PAX8-driven TPO luciferase reporter, dose response, RMG-I cells, cherry-pick (AID 687027); assay type: functional, cell-based;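 also: luciferase reporter driven by Pax8 target thyroperoxidase promoter measured by SteadyGlo luminescence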
Chain of Paired box protein Pax-8 (Q06710 whole entry): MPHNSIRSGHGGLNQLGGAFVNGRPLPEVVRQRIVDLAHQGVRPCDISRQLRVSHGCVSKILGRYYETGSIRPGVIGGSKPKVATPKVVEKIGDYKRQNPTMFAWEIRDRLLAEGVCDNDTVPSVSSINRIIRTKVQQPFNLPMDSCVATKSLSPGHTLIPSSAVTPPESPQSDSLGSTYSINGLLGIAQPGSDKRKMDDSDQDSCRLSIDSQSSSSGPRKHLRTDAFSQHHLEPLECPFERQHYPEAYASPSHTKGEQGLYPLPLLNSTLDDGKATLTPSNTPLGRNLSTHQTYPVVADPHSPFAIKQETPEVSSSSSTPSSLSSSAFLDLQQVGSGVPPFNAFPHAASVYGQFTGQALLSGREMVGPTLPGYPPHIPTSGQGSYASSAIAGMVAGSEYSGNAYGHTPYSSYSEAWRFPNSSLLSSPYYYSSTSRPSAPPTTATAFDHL

Chain of Luciferin 4-monooxygenase (P08659 whole entry): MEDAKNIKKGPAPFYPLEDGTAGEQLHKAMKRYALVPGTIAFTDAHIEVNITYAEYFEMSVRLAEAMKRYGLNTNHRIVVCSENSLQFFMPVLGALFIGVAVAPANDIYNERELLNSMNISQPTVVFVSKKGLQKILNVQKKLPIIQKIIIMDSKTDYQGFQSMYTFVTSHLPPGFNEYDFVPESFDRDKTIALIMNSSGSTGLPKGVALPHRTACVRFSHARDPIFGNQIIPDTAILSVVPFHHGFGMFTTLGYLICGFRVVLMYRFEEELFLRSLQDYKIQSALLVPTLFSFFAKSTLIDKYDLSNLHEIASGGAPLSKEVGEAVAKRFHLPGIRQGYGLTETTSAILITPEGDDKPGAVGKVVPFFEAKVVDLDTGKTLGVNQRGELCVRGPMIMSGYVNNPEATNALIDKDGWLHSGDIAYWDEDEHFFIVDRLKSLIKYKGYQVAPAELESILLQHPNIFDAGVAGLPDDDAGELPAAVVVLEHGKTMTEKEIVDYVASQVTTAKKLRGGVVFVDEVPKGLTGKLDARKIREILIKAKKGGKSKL

Compound: Cn1c(=O)c2c(SCC(=O)N3CCCc4ccccc43)nc(C3CC3)nc2n(C)c1=O
- EC50 [1]: > 195 µM (not active)

Compound: O=C(c1cc2ccccc2oc1=O)N(c1ccc(Cl)cc1)C1C=CS(=O)(=O)C1 (configuration not stated)
- EC50 [2]: 13.6 µM (active)
- EC50 [3]: 36.3 µM (active)
- EC50 [4]: > 120 µM (not active)

Compound: COc1ccc(NC(=O)C2CC2)cc1-n1cnnn1
- EC50 [1]: > 195 µM (not active)

Compound: O=C(Nc1ccccc1)C1=C[C@@H](c2ccccc2)C[C@@H](OCc2ccc(CO)cc2)O1
- EC50 [2]: 7.69 µM (active)
- EC50 [3]: > 120 µM (not active)
- EC50 [4]: 14.2 µM (active)

Compound: Oc1ccc(-c2c(C3=CCCCC3)sc3ccccc23)cc1
- EC50 [5]: 55.7 µM (inconclusive)
- EC50 [6]: 2.48 µM (active)
- EC50 [7]: 7.29 µM (active)

Compound: CN(C(=O)CSc1nncn1C)C1CCCN(Cc2ccccc2F)C1 (configuration not stated)
- EC50 [8]: > 112 µM (not active)
- EC50 [9]: > 112 µM (not active)

Compound: Cc1cc(C)nc(NC2=NCCS2)n1
- EC50 [8]: > 112 µM (not active)
- EC50 [9]: > 112 µM (not active)

Compound: CCN(CC)CCCNCC(=O)Nc1ccc2c(c1)CCC2
- IC50 [10]: 117 µM (active)

Compound: COc1ccc(N(C(=O)c2ccc(F)cc2)C2=CC3CCC(C2)N3C)cc1 (configuration not stated)
- EC50 [8]: > 112 µM (not active)
- EC50 [9]: > 112 µM (not active)

Compound: CCOC(=O)c1cnn(-c2nc3c(C)cccc3s2)c1C(F)(F)F
- EC50 [5]: 22.3 µM (active)
- EC50 [6]: 9.35 µM (active)
- EC50 [7]: 16.6 µM (active)

Compound: C[n+]1ccc(C=NNc2nc(Cl)c(C#N)c(Cl)c2Cl)cc1
- EC50 [5]: > 150 µM (not active)
- EC50 [6]: 33 µM (active)
- EC50 [7]: > 150 µM (not active)

Compound: COc1ccc(N2CCN(C(=O)Cc3ccc(-n4c(=O)[nH]c5ccccc5c4=O)cc3)CC2)cc1
- EC50 [1]: > 195 µM (not active)

Compound: CCOC(=O)c1[nH]c2ccc(OC)cc2c1N=C(S)N1CCN(C(=O)OCC)CC1
- EC50 [8]: > 112 µM (not active)
- EC50 [9]: > 112 µM (not active)

Compound: Nc1c(Cl)ncnc1NCCc1ccc(O)cc1
- IC50 [10]: 99.1 µM (active)

Compound: CSc1nc(N)n2nc(-c3ccccc3)cc2n1
- EC50 [8]: 5.68 µM (active)
- EC50 [9]: 3.8 µM (active)

Compound: O=C(NCC(O)c1ccccc1)c1ccc(Cl)c(S(=O)(=O)N2CCCC2)c1 (configuration not stated)
- EC50 [2]: 37.8 µM (active)
- EC50 [3]: 14.9 µM (active)

Compound: CCOC(=O)c1sc(NC(=O)CC(C)c2ccccc2)nc1C (configuration not stated)
- EC50 [8]: > 112 µM (not active)
- EC50 [9]: > 112 µM (not active)

Compound: S=C(c1ccc2c(c1)OCO2)N1CCCCC1
- EC50 [8]: > 112 µM (not active)
- EC50 [9]: > 112 µM (not active)

Compound: O=C(Nc1ccc2c(c1)CCC2)c1cc(S(=O)(=O)Nc2ccc(F)cc2)c(Cl)cc1Cl
- EC50 [5]: 3.26 µM (active)
- EC50 [6]: 3.5 µM (active)
- AC50 [11]: 4.35 µM (active)
- EC50 [7]: 15.2 µM (active)

Compound: Cc1cc(C(=O)CSc2nc3ccccc3o2)c(C)n1C1CC1
- EC50 [2]: 35.7 µM (active)
- EC50 [3]: 0.905 µM (active)

Compound: COc1ccc(S(=O)(=O)NCC2CCCN(C(=O)C3CCCC3)C2)cc1 (configuration not stated)
- EC50 [1]: > 195 µM (not active)

Compound: Cc1ccc(C)c(CSC2=NCCN2S(=O)(=O)c2ccccc2)c1
- EC50 [5]: 17.3 µM (active)
- EC50 [6]: 21.7 µM (active)
- EC50 [7]: > 150 µM (not active)

Compound: O=C(Nc1ccc2c(c1)OCO2)C1CC(c2c(F)cccc2Cl)=NO1 (configuration not stated)
- EC50 [2]: 3.83 µM (active)
- EC50 [3]: 25.6 µM (active)
- EC50 [4]: 13.6 µM (active)

Compound: CCOC(=O)C1=C(COC(=O)/C=C/c2ccc(O)c(OC)c2)NC(=O)NC1C (configuration not stated)
- IC50 [10]: 59.4 µM (active)

Compound: Sc1nnc(-c2cnccn2)n1-c1ccccc1
- EC50 [1]: > 195 µM (not active)

Compound: FC(F)(F)c1cc(N2CCN(Cc3ccccc3)CC2)c2ccccc2n1
- EC50 [5]: > 150 µM (not active)
- EC50 [6]: > 150 µM (not active)
- EC50 [7]: > 150 µM (not active)

Compound: CCN(CC)c1ccc(-n2cc3c(=O)n(C)c(=O)n(C)c3c2)cc1
- EC50 [5]: > 150 µM (not active)
- EC50 [6]: 4.91 µM (active)
- EC50 [7]: 39.3 µM (active)

Compound: CNC(=O)c1cc(S(=O)(=O)N(C)C)ccc1Cl
- EC50 [8]: > 112 µM (not active)
- EC50 [9]: > 112 µM (not active)

Compound: COc1ccc(OC(C)C(=O)N2CCC(C)CC2)cc1 (configuration not stated)
- EC50 [1]: > 195 µM (not active)

Compound: COc1ccc(/C=N/Nc2nccnc2Cl)cc1
- EC50 [8]: 1.15 µM (active)
- EC50 [9]: 3.76 µM (active)

Compound: Nc1ccc2nc(-c3ccccn3)[nH]c2c1
- EC50 [1]: 23.2 µM (active)

Compound: C[C@@H]1CCCCO[C@H](CN(C)Cc2ccc(C(F)(F)F)cc2)[C@H](C)CN([C@@H](C)CO)C(=O)c2cc(NS(=O)(=O)c3cccs3)ccc2O1
- AC50 [12]: 9.41 µM (active)

Compound: C/C(=N\N=C(/N)SC1CC(=O)N(c2ccc(Cl)c(Cl)c2)C1=O)c1cccs1 (configuration not stated)
- EC50 [5]: 7.44 µM (inconclusive)
- EC50 [6]: 2.88 µM (active)
- AC50 [11]: 3.86 µM (active)
- EC50 [7]: 8.08 µM (active)

Compound: Nc1c(S(=O)(=O)c2cccs2)c2nc3ccccc3nc2n1/N=C/c1cccc(O)c1
- EC50 [5]: > 150 µM (not active)
- EC50 [6]: 3.26 µM (active)
- AC50 [11]: 3.99 µM (active)
- EC50 [7]: 7.29 µM (active)

Compound: O=C(O)c1ccc(/C=N\Nc2ccccn2)cc1
- EC50 [8]: 2.54 µM (active)
- EC50 [9]: 3.56 µM (active)

Compound: O=C(O)CC1Sc2ccccc2NC1=O (configuration not stated)
- EC50 [8]: > 112 µM (not active)
- EC50 [9]: > 112 µM (not active)

Compound: COc1ccc(N2CCN(C(CNC(=O)CC(C)(C)C)c3ccc4c(c3)OCO4)CC2)cc1 (configuration not stated)
- IC50 [10]: 166 µM (active)
